From the NIST ThermoML archive (doi:10.1016/j.jct.2012.02.011)
Where “and” joins values, the source holds several entries; their conditions need not be identical. Equal entries are not always repeated. ± gives the expanded uncertainty stated by the source.

Experiments:
[1] = relative permittivity at various frequencies (dimensionless); conditions: 101.3 kPa, Liquid, Frequency=3 MHz
[2] = relative permittivity at various frequencies (dimensionless); xn = mol fraction of the nth substance listed; conditions: 101.33 kPa, Liquid, Frequency=3 MHz, OH-301

CCCCOCCO [2-butoxyethan-1-ol]
relative permittivity ([1]; 293.15 K, OH-301): 9.78 ± 0.04 | relative permittivity ([1]; 298.15 K, OH-301): 9.35 ± 0.04 | relative permittivity ([1]; 303.15 K, OH-301): 8.88 ± 0.04 | relative permittivity ([1]; 308.15 K, OH-301): 8.39 ± 0.04 | relative permittivity ([1]; 313.15 K, OH-301): 7.91 ± 0.04

CCOCCO [2-ethoxyethan-1-ol]
relative permittivity ([1]; 293.15 K, OH-301): 14.25 ± 0.04 | relative permittivity ([1]; 298.15 K, OH-301): 14.03 ± 0.04 | relative permittivity ([1]; 303.15 K, OH-301): 13.76 ± 0.04 | relative permittivity ([1]; 308.15 K, OH-301): 13.44 ± 0.04 | relative permittivity ([1]; 313.15 K, OH-301): 13.07 ± 0.04

COCCO [2-methoxyethan-1-ol]
relative permittivity ([1]; 293.15 K, OH-301): 17.38 ± 0.04 | relative permittivity ([1]; 298.15 K, OH-301): 16.95 ± 0.04 and 16.96 ± 0.04 | relative permittivity ([1]; 303.15 K, OH-301): 16.56 ± 0.04 | relative permittivity ([1]; 308.15 K, OH-301): 16.16 ± 0.04 | relative permittivity ([1]; 313.15 K, OH-301): 15.77 ± 0.04

COCCO [2-methoxyethan-1-ol] + O=[N+]([O-])c1ccccc1
relative permittivity ([2]; 293.15 K, x2 = 0): 17.38 ± 0.04 | relative permittivity ([2]; 298.15 K, x2 = 0): 16.96 ± 0.04 | relative permittivity ([2]; 303.15 K, x2 = 0): 16.56 ± 0.04 | relative permittivity ([2]; 308.15 K, x2 = 0): 16.16 ± 0.04 | relative permittivity ([2]; 313.15 K, x2 = 0): 15.77 ± 0.04

CCCOCCO [2-propoxyethanol]
relative permittivity ([1]; 293.15 K, OH-301): 11.76 ± 0.04 | relative permittivity ([1]; 298.15 K, OH-301): 11.5 ± 0.04 | relative permittivity ([1]; 303.15 K, OH-301): 11.19 ± 0.04 | relative permittivity ([1]; 308.15 K, OH-301): 10.91 ± 0.04 | relative permittivity ([1]; 313.15 K, OH-301): 10.62 ± 0.04

O=[N+]([O-])c1ccccc1 [nitrobenzene]
relative permittivity ([1]; 293.15 K, OH-301 Stainless Steel Cell): 35.91 ± 0.06 | relative permittivity ([1]; 298.15 K, OH-301 Stainless Steel Cell): 34.78 ± 0.04 | relative permittivity ([1]; 303.15 K, OH-301 Stainless Steel Cell): 33.84 ± 0.05 | relative permittivity ([1]; 308.15 K, OH-301 Stainless Steel Cell): 33.13 ± 0.05 | relative permittivity ([1]; 313.15 K, OH-301 Stainless Steel Cell): 32.66 ± 0.04

O=[N+]([O-])c1ccccc1 [nitrobenzene] + CCCCOCCO
relative permittivity ([2]; 293.15 K, x1 = 1): 35.91 ± 0.06 | relative permittivity ([2]; 298.15 K, x1 = 1): 34.78 ± 0.06 | relative permittivity ([2]; 303.15 K, x1 = 1): 33.84 ± 0.05 | relative permittivity ([2]; 308.15 K, x1 = 1): 33.13 ± 0.05 | relative permittivity ([2]; 313.15 K, x1 = 1): 32.66 ± 0.04

O=[N+]([O-])c1ccccc1 [nitrobenzene] + CCCOCCO
relative permittivity ([2]; 293.15 K, x1 = 1): 35.91 ± 0.06 | relative permittivity ([2]; 298.15 K, x1 = 1): 34.78 ± 0.06 | relative permittivity ([2]; 303.15 K, x1 = 1): 33.84 ± 0.05 | relative permittivity ([2]; 308.15 K, x1 = 1): 33.13 ± 0.05 | relative permittivity ([2]; 313.15 K, x1 = 1): 32.66 ± 0.04

O=[N+]([O-])c1ccccc1 [nitrobenzene] + CCOCCO
relative permittivity ([2]; 293.15 K, x1 = 1): 35.91 ± 0.06 | relative permittivity ([2]; 298.15 K, x1 = 1): 34.78 ± 0.06 | relative permittivity ([2]; 303.15 K, x1 = 1): 33.84 ± 0.05 | relative permittivity ([2]; 308.15 K, x1 = 1): 33.13 ± 0.05 | relative permittivity ([2]; 313.15 K, x1 = 1): 32.66 ± 0.04
